Literature values as cited in US20190383817A1, “PREDICTING RESPONSE TO IMMUNOMODULATORY DRUGS (IMIDS) IN MULTIPLE MYELOMA PATIENTS” (SKYLINEDX B.V., priority 2016, published 2019).

How the values were obtained:
[1] = tested on: IKAROS transcription factors; conditions: compared with thalidomide
MM patients = conditions: compared against non-Bortezomib containing regimes such as VAD
CRBN = conditions: comparison among thalidomide, lenalidomide, pomalidomide

| binding to CRBN (CRBN) | SMILES | efficiency at targeting IKAROS transcription factors for degradation by CRBN [1] | Overall Survival (OS) (MM patients) | Progression Free Survival (PFS) (MM patients) |
| --- | --- | --- | --- | --- |
| – | Cc1cccc2c1C(=O)N(C1CCC(=O)NC1=O)C2=O (stereo not drawn) [2-(2,6-dioxopiperidin-3-yl)-4-methylisoindoline-1,3-dione] | more efficient | – | – |
| – | CC(C)C[C@H](NC(=O)[C@H](Cc1ccccc1)NC(=O)c1cnccn1)B(O)O [Bortezomib] | – | significantly prolonged | significantly prolonged |
| bind similarly to CRBN | Nc1cccc2c1C(=O)N(C1CCC(=O)NC1=O)C2=O (stereo not drawn) [pomalidomide, 4-Amino-2-(2,6-dioxopiperidin-3-yl)isoindole-1,3-dione] | more efficient | – | – |
| bind similarly to CRBN | O=C1CCC(N2C(=O)c3ccccc3C2=O)C(=O)N1 (stereo not drawn) [thalidomide, 2-(2,6-dioxopiperidin-3-yl)-1H-isoindole-1,3(2H)-dione] | – | – | – |
